PMC4648050, “Discovery of Inhibitors of Trypanosoma brucei by Phenotypic Screening of a Focused Protein Kinase Library” (Chemmedchem, 2015)

Experiments:
Format in all cases: biochemical, human/mammalian
Conditions in all cases: compound at 10 μM, read-out: % of activity respect of the control
MKK1 = MKK1 (Homo sapiens, UniProt Q02750); experiment: Kinase panel: MKK1
Procedure: (§1) The DDU kinase-focused compound set contains lead-like scaffolds that are designed to target protein kinases; they have kinase hinge binding motifs. Four of the 1H-imidazopyrazinones were screened against a human/mammalian kinase panel at the University of Dundee (http://www.kinase-screen.mrc.ac.uk) at a concentration of 10 μM. At the time of testing the panel contained 79 mammalian kinases selected to provide a broad coverage of the mammalian kinome (∼500 kinases in the human genome).[3] None of the compounds were active against any of the kinases at 10 μM.

PRK2 = PRK2 (Homo sapiens, UniProt Q16513); experiment: Kinase panel: PRK2
Procedure: as §1

ERK1 = ERK1 (Homo sapiens, UniProt P27361); experiment: Kinase panel: ERK1
Procedure: as §1

NEK2a = target: T1, NEK2a (Homo sapiens, UniProt P51955); experiment: Kinase panel: NEK2a
T1 sequence (P51955 1-445): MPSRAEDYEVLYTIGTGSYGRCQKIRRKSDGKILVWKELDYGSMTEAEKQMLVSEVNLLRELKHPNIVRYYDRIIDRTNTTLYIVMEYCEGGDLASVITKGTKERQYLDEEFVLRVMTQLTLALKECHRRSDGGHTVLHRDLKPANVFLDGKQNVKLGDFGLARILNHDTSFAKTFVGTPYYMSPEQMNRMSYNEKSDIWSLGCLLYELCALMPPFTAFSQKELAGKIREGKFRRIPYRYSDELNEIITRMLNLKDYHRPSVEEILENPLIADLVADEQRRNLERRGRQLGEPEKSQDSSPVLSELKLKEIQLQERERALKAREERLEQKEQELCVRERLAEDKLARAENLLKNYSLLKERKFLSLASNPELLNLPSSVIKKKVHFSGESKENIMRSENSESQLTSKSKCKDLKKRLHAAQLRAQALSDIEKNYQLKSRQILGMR
Procedure: as §1

TBK1 = target: T2, TBK1 (Homo sapiens, UniProt Q9UHD2); experiment: Kinase panel: TBK1
T2 sequence (Q9UHD2 1-729): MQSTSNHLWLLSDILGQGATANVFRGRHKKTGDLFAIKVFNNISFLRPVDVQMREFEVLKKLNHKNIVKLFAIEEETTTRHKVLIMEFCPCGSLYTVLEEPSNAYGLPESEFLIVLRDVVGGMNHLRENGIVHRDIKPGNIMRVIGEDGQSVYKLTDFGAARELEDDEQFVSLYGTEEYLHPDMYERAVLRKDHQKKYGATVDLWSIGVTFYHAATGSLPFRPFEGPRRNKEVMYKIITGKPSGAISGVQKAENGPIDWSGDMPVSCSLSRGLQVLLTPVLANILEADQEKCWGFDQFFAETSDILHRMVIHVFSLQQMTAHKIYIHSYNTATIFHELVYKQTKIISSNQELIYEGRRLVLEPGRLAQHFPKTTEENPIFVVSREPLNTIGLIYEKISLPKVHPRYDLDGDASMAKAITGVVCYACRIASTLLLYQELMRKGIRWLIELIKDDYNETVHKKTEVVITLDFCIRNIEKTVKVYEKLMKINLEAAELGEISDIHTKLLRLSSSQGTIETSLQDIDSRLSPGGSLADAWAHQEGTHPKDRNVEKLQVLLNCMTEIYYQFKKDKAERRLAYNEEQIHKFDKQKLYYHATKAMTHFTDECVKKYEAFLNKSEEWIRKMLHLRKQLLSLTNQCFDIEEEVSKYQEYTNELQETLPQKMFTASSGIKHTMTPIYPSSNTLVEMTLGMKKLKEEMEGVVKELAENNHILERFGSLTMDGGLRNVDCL
Procedure: as §1

CDK2-Cyclin A = CDK2-Cyclin A (Homo sapiens, UniProt P24941); experiment: Kinase panel: CDK2-Cyclin A
Procedure: as §1

PKD1 = target: T3, PKD1 (Homo sapiens, UniProt Q15139); experiment: Kinase panel: PKD1
T3 sequence (Q15139 1-912): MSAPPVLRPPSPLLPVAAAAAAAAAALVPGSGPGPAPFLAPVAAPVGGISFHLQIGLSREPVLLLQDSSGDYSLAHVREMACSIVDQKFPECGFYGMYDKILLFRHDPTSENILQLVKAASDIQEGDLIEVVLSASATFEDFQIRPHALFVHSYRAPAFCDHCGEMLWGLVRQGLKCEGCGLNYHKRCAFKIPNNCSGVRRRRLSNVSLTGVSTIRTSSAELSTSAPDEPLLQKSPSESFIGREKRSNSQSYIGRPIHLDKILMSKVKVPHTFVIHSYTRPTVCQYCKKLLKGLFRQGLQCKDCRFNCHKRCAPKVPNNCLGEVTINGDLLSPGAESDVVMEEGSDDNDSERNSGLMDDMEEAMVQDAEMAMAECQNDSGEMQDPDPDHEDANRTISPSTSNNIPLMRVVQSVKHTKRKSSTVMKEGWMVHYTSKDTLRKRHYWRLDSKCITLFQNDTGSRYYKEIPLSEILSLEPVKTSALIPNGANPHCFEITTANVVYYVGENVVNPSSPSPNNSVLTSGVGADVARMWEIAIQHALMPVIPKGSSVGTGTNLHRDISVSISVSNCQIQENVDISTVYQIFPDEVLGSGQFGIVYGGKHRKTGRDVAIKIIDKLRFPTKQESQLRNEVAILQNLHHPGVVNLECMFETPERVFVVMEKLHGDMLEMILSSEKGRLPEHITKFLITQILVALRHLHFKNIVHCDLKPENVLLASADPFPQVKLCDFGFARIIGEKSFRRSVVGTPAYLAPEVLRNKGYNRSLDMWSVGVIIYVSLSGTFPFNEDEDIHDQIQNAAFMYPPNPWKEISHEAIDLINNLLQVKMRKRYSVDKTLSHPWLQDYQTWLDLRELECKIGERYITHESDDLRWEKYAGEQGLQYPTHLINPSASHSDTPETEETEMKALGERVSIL
Procedure: as §1

RSK2 = RSK2 (Homo sapiens, UniProt P51812); experiment: Kinase panel: RSK2
Procedure: as §1

S6K1 = S6K1 (Homo sapiens, UniProt P23443); experiment: Kinase panel: S6K1
Procedure: as §1

PLK1 (Okadaic Acid) = PLK1 (Okadaic Acid) (Homo sapiens, UniProt P53350); experiment: Kinase panel: PLK1 (Okadaic Acid)
Procedure: as §1

RSK1 = RSK1 (Homo sapiens, UniProt Q15418); experiment: Kinase panel: RSK1
Procedure: as §1

PIM3 = PIM3 (Homo sapiens, UniProt Q86V86); experiment: Kinase panel: PIM3
Procedure: as §1

CHK2 = CHK2 (Homo sapiens, UniProt O96017); experiment: Kinase panel: CHK2
Procedure: as §1

Chain of PRK2 (Q16513 whole entry): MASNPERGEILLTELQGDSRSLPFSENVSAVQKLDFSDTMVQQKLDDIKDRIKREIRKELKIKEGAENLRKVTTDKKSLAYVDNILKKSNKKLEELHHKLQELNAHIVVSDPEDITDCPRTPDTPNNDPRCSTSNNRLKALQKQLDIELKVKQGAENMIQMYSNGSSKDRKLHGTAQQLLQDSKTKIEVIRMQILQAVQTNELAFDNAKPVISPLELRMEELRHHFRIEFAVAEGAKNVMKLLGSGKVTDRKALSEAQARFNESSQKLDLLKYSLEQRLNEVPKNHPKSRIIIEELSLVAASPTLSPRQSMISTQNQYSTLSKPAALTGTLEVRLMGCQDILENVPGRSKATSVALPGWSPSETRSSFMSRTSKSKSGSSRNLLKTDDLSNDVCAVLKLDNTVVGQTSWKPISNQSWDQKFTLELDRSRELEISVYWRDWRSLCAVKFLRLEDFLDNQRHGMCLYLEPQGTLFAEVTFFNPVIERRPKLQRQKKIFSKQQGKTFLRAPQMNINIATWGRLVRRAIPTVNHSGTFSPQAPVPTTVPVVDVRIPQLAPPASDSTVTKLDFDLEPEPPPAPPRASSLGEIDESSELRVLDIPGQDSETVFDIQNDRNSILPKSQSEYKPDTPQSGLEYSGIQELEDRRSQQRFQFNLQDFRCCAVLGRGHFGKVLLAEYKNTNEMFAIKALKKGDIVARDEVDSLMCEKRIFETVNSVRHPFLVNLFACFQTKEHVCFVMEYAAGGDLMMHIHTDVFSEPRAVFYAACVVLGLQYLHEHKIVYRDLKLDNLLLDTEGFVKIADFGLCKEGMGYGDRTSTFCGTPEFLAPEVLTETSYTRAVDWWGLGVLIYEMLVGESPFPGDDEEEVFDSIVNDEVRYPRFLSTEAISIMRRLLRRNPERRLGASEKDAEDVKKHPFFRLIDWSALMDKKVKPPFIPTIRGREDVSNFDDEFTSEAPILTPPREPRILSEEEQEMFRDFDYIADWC
Chain of CHK2 (O96017 whole entry): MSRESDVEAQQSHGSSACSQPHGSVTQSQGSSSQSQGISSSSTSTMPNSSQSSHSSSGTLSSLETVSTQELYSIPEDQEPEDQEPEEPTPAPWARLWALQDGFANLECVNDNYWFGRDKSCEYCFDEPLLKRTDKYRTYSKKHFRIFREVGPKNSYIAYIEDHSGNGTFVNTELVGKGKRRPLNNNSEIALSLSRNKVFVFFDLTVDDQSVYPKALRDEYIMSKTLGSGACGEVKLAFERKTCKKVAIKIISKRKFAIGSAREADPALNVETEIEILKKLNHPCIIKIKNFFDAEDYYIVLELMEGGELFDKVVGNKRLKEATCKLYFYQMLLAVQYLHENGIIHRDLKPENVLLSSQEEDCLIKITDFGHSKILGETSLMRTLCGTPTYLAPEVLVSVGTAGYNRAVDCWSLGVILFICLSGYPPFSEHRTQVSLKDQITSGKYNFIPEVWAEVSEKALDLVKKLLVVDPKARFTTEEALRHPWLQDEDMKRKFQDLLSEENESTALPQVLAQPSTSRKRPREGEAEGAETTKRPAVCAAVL
Chain of RSK1 (Q15418 whole entry): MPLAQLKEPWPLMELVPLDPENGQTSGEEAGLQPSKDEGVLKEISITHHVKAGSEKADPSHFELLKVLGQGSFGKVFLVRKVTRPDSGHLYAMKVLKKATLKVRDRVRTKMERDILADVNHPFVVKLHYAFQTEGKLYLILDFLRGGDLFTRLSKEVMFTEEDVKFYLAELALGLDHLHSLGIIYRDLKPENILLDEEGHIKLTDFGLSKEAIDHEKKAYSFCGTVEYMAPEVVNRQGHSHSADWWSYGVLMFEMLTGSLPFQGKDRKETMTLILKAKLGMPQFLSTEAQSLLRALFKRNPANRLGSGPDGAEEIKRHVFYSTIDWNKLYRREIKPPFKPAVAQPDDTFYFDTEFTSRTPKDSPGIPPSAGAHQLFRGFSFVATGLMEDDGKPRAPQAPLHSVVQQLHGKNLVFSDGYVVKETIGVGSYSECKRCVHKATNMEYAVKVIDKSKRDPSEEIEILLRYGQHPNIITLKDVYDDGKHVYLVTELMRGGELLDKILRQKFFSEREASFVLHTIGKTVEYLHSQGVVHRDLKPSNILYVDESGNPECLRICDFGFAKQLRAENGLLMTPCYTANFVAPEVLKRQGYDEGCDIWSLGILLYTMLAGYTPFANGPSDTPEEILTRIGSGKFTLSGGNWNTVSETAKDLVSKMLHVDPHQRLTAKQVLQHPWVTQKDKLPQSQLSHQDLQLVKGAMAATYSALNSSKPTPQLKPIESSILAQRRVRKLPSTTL
Chain of S6K1 (P23443 whole entry): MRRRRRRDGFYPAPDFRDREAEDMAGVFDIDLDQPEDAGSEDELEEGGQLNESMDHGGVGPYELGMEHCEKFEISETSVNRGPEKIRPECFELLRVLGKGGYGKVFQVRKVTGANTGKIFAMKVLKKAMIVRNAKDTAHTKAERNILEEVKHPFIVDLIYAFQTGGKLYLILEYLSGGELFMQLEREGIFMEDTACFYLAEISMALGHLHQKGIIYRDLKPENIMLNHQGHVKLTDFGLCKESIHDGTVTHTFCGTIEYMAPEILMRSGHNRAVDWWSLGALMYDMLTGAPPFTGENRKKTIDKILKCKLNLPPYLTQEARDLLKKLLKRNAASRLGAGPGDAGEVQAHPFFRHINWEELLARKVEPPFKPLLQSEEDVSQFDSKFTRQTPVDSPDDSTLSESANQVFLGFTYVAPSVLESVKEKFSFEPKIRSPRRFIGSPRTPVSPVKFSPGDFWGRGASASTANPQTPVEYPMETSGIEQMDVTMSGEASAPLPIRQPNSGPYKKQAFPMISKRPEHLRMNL
Chain of MKK1 (Q02750 whole entry): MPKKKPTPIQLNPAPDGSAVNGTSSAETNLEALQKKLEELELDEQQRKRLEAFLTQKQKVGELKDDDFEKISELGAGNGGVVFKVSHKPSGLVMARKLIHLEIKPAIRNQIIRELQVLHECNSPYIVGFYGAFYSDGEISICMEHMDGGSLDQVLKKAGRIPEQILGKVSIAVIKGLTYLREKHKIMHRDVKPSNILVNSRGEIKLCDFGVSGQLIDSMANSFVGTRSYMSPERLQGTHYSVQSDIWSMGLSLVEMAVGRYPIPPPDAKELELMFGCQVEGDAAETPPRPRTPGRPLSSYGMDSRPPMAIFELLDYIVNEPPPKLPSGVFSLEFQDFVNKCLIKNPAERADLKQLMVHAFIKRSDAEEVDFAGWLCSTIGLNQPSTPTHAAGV
Chain of ERK1 (P27361 whole entry): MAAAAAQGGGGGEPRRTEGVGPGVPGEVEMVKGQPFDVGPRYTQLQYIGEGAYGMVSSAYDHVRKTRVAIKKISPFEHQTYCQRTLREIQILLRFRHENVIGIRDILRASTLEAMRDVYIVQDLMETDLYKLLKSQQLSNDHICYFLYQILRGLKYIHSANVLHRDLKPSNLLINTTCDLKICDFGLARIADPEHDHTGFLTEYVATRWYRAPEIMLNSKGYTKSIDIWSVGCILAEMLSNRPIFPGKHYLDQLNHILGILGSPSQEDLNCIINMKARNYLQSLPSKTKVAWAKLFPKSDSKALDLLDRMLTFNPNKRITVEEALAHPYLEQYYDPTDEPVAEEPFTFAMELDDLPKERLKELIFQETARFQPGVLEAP
Chain of PLK1 (Okadaic Acid) (P53350 whole entry): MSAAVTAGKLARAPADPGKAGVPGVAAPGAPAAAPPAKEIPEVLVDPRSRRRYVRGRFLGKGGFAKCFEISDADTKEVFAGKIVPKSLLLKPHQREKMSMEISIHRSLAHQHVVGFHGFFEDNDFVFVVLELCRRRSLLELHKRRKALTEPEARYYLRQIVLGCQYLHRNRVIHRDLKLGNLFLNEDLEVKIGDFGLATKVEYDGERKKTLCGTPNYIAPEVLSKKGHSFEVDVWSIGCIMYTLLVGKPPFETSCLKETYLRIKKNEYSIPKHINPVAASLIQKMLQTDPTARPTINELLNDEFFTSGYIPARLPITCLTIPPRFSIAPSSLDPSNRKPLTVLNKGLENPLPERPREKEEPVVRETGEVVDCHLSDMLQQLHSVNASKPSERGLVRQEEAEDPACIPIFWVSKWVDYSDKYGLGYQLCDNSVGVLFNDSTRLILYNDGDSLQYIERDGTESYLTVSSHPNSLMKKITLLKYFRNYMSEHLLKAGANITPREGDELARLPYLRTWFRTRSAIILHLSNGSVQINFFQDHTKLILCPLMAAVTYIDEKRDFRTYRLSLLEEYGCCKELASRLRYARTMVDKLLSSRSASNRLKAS

SMILES	remaining activity at 10 µM (MKK1) [%]	remaining activity at 10 µM (PRK2) [%]	remaining activity at 10 µM (ERK1) [%]	remaining activity at 10 µM (NEK2a) [%]	remaining activity at 10 µM (TBK1) [%]	remaining activity at 10 µM (CDK2-Cyclin A) [%]	remaining activity at 10 µM (PKD1) [%]	remaining activity at 10 µM (RSK2) [%]	remaining activity at 10 µM (S6K1) [%]	remaining activity at 10 µM (PLK1 (Okadaic Acid)) [%]	remaining activity at 10 µM (RSK1) [%]	remaining activity at 10 µM (PIM3) [%]	remaining activity at 10 µM (CHK2) [%]
CC(c1ccccc1)n1c(=O)[nH]c2ncc(-c3ccc(F)cc3)nc21 (stereo not drawn) [Compound 1]	106	111	153	117	95	89	55	110	81	96	96	83	97
O=c1[nH]c2ncc(-c3ccc(F)cc3)nc2n1CC1CC1 [Compound 10]	97	99	112	101	95	82	40	113	92	109	85	89	97
O=c1[nH]c2ncc(-c3ccc(F)cc3)nc2n1C1CCCCC1 [Compound 12, 1-Cyclohexyl-6-(4-fluorophenyl)-1H-imidazo[4,5-b]pyrazin-2(3H)-one]	62	112	115	93	92	84	60	104	97	96	89	90	96
C[C@H](c1ccccc1)n1c(=O)[nH]c2ncc(-c3ccccc3)nc21 [Compound 14, (R)-6-Phenyl-1-(1-phenylethyl)-1H-imidazo[4,5-b]pyrazin-2(3H)-one]	87	97	105	96	100	84	44	101	65		89	83	93
